Assay results reported in patent US10214512B2, “Factor XIA inhibitors” (MERCK SHARP & DOHME CORP., priority 2015, dated 2019).

Tests used:
[1] = target: purified human Factor XIa (Homo sapiens (Human), UniProt P03951); test: Factor XIa Assay; type: biochemical; details: purified human Factor XIa 40 pM; substrate Z-Gly-Pro-Arg-AFC 100 μM; 50 mM HEPES pH 7.4; read-out: Human FXIa Ki
How it was run: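 Ki obtained from the dependence of uninhibited/inhibited initial-velocity ratio on inhibitor concentration, under a competitive-inhibition model. Reactions used 100 μM Z-Gly-Pro-Arg-AFC and 40 pM final human Factor XIa in pH 7.4 HEPES buffer with NaCl, CaCl2 and PEG 8000; run at rt or 37° C following pre-equilibration.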

[2] = target: purified Human plasma Kallikrein (Homo sapiens (Human), UniProt P03952); test: Kallikrein Assay; type: biochemical; details: purified Human plasma Kallikrein 0.5 nM; substrate Acetyl-K-P-R-AFC; 50 mM HEPES pH 7.4; Ki from IC50 by Cheng Prusoff
How it was run: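 Purified human plasma kallikrein (0.5 nM) with fluorogenic Ac-K-P-R-AFC ([…]) in 50 mM HEPES pH 7.4, 150 mM NaCl, 5 mM CaCl2, 0.1% PEG 8000, at rt or 37 °C. Substrate hydrolysis rate read with and without inhibitor; IC50 from four-parameter logistic fit, converted to Ki by Cheng–Prusoff.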

Sequence of purified Human plasma Kallikrein (P03952 391-638): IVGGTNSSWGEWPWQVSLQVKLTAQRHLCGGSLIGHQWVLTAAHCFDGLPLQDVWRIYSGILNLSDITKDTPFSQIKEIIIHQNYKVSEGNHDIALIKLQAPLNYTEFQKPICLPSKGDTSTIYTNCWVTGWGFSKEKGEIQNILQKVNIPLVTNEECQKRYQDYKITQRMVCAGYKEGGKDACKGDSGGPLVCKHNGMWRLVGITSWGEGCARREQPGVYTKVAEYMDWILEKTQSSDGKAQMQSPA
Sequence of purified Human plasma Kallikrein (P03952 20-390 partner): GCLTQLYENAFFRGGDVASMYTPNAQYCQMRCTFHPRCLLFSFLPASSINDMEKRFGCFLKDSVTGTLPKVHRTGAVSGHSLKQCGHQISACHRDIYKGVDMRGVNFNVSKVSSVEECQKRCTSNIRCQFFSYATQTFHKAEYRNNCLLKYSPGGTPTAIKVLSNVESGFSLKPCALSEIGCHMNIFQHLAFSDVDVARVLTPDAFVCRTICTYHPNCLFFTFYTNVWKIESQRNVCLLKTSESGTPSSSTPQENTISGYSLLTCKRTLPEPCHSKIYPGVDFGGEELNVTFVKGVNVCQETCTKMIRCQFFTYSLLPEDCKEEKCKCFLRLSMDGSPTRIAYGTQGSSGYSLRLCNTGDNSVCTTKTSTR
Sequence of purified human Factor XIa (P03951 388-625): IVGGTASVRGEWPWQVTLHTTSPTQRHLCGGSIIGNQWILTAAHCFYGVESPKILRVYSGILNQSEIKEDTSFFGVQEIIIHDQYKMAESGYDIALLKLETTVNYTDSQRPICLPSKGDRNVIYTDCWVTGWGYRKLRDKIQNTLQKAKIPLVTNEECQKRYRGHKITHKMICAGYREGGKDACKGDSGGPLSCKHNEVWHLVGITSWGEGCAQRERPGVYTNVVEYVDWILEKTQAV
Sequence of purified human Factor XIa (P03951 19-387 partner): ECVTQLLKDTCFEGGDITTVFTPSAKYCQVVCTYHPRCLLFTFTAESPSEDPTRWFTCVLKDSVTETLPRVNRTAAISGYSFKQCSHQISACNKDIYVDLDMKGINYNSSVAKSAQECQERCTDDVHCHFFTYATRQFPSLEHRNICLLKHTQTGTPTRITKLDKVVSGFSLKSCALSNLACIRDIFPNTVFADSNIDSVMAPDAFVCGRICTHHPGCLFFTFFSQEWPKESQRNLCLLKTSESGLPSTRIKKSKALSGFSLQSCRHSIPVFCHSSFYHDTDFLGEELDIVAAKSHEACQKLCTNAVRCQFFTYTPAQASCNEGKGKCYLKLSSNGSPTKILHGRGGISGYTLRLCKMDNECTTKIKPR

Compound: COC(=O)Nc1ccc2c(c1)NC(=O)CCCCC(c1ccc(-c3cc(Cl)ccc3OC(F)F)c[n+]1[O-])c1nc-2c[nH]1 (single isomer, unassigned) [Example 102-a, (Z)-5-(5-Chloro-2-(difluoromethoxy)phenyl)-2-(2^4-((methoxycarbonyl)amino)-4-oxo-1^1H-3-aza-1(4,2)-imidazola-2(1,2) -benzenacyclononaphane-9-yl)pyridine 1-oxide]
- Ki [1]: 0.14 nM
- Ki [2]: 0.43 nM

Compound: COC(=O)Nc1ccc2c(c1)NC(=O)CCCCC(c1ccc(-c3c(F)cc(I)c(Cl)c3F)c[n+]1[O-])c1nc-2c[nH]1 (single isomer, unassigned) [Example 103-a, (Z)-5-(3-Chloro-2,6-difluoro-4-iodophenyl)-2-(2^4-((methoxycarbonyl)amino)-4-oxo-1^1H-3-aza-1(4,2)-imidazola-2(1,2) -benzenacyclononaphane-9-yl)pyridine 1-oxide]
- Ki [1]: 1.7 nM
- Ki [2]: 137 nM

Compound: O=C1CCCCC(c2ccc(-c3c(F)ccc(Cl)c3F)c[n+]2[O-])c2nc(c[nH]2)-c2cc(F)ccc2N1 (single isomer, unassigned) [Example 104-a]
- Ki [1]: 10.8 nM
- Ki [2]: 26.3 nM

Compound: O=C1CCCCC(c2ccc(-c3cc(Cl)ccc3-n3cc(C(F)F)nn3)c[n+]2[O-])c2nc(c[nH]2)-c2cc(F)ccc2N1 (single isomer, unassigned) [Example 105-a, (Z)-5-(5-Chloro-2-(4-(difluoromethyl)-1H-1,2,3-triazol-1-yl)phenyl)-2-(2^5-fluoro-4-oxo-1^1H-3-aza-1 (4,2)-imidazola-2(1,2)-benzenacyclononaphane-9-yl)pyridine 1-oxide]
- Ki [1]: 0.56 nM
- Ki [2]: 17.2 nM

Compound: Nc1ccc2c(c1)NC(=O)CCCCC(c1ccc(-c3c(F)ccc(Cl)c3F)c[n+]1[O-])c1nc-2c[nH]1 (single isomer, unassigned) [Example 108-a]
- Ki [1]: 0.18 nM
- Ki [2]: 1.02 nM

Compound: CCOC(=O)Nc1ccc2c(c1)NC(=O)CCCCC(c1ccc(-c3c(F)ccc(Cl)c3F)c[n+]1[O-])c1nc-2c[nH]1 (single isomer, unassigned) [Example 109-a, (Z)-5-(3-chloro-2,6-difluorophenyl)-2-(2^4-((ethoxycarbonyl)amino)-4-oxo-1^1H-3-aza-1(4,2)-imidazola-2(1,2)-benzenacyclononaphane-9-yl)pyridine 1-oxide]
- Ki [1]: 0.23 nM
- Ki [2]: 0.77 nM

Compound: COC(=O)Nc1ccc2c(c1)NC(=O)CCCCC(c1ccc(-c3c(F)ccc(Cl)c3F)c[n+]1[O-])c1nc-2c(Cl)[nH]1 (single isomer, unassigned) [Example 110-a, (Z)-5-(3-Chloro-2,6-difluorophenyl)-2-(1^5-chloro-2^4-((Methoxycarbonyl)amino)-4-oxo-1^1H-3-aza-1(4,2)-imidazola-2(1,2) -benzenacyclononaphane-9-yl)pyridine 1-oxide]
- Ki [1]: 0.52 nM
- Ki [2]: 0.21 nM

Compound: COC(=O)Nc1ccc2c(c1)NC(=O)CCCCC(c1ccc(-c3c(F)ccc(Cl)c3F)c[n+]1[O-])c1nc-2c(C)[nH]1 (single isomer, unassigned) [Example 111-a, (Z)-5-(3-chloro-2,6-difluorophenyl)-2-(2^4-((methoxycarbonyl)amino)-1^5-methyl-4-oxo-1^1H-3-aza-1(4,2)-imidazola-2(1,2) -benzenacyclononaphane-9-yl)pyridine 1-oxide]
- Ki [1]: 0.19 nM
- Ki [2]: 0.34 nM

Compound: CCc1[nH]c2nc1-c1ccc(NC(=O)OC)cc1NC(=O)CCCCC2c1ccc(-c2c(F)ccc(Cl)c2F)c[n+]1[O-] (single isomer, unassigned) [Example 112-a, (Z)-5-(3-Chloro-2,6-difluorophenyl)-2-(1^5-ethyl-2^4-((Methoxycarbonyl)amino)-4-oxo-1^1H-3-AZA-1(4,2)-imidazola-2(1,2) -benzenacyclononaphane-9-yl)pyridine 1-oxide]
- Ki [1]: 0.13 nM
- Ki [2]: 0.26 nM

Compound: COC(=O)Nc1ccc2c(c1)NC(=O)CCCCC(c1ccc(-c3c(F)cccc3OC(F)F)c[n+]1[O-])c1nc-2c(C2CC2)[nH]1 (single isomer, unassigned) [Example 113-a, (Z)-2-(1^5-cyclopropyl-2^4-((methoxycarbonyl)amino)-4-oxo-1^1H-3-aza-1(4,2)-imidazola-2(1,2)-benzenacyclononaphane-9-yl)-5-(2-(difluoromethoxy)-6-fluorophenyl)pyridine 1-oxide]
- Ki [1]: 0.21 nM
- Ki [2]: 1.87 nM

Compound: O=C1CCCC[C@H](c2ccc(-c3cc(Cl)ccc3-c3cnco3)c[n+]2[O-])c2nc(c[nH]2)-c2cc(F)ccc2N1 (single isomer, unassigned) [Example 118]
- Ki [1]: 5.69 nM
- Ki [2]: 37.5 nM

Compound: COC(=O)Nc1ccc2c(c1)NC(=O)CCCC[C@H](c1ccc(-c3c(F)cccc3F)c[n+]1[O-])c1nc-2c(C)[nH]1 (single isomer, unassigned) [Example 119]
- Ki [1]: 0.54 nM
- Ki [2]: 1.68 nM

Compound: COC(=O)Nc1ccc2c(c1)NC(=O)CCCC[C@H](c1ccc(-c3ccccc3C(F)(F)F)c[n+]1[O-])c1nc-2c(C)[nH]1 (single isomer, unassigned) [Example 121]
- Ki [1]: 0.43 nM
- Ki [2]: 3.9 nM

Compound: COC(=O)Nc1ccc2c(c1)NC(=O)CCCC[C@H](c1ccc(-c3c(F)cccc3C(F)(F)F)c[n+]1[O-])c1nc-2c(C)[nH]1 (single isomer, unassigned) [Example 122]
- Ki [1]: 0.36 nM
- Ki [2]: 2.96 nM

Compound: COC(=O)Nc1ccc2c(c1)NC(=O)CCCC[C@H](c1ccc(-c3c(C(F)(F)F)ccc(Cl)c3F)c[n+]1[O-])c1nc-2c(C)[nH]1 (single isomer, unassigned) [Example 123]
- Ki [1]: 0.42 nM
- Ki [2]: 1.41 nM

Compound: COC(=O)Nc1ccc2c(c1)NC(=O)CCCC[C@H](c1ccc(-c3c(C(F)F)ccc(Cl)c3F)c[n+]1[O-])c1nc-2c(C)[nH]1 (single isomer, unassigned) [Example 124]
- Ki [1]: 0.2 nM
- Ki [2]: 0.73 nM

Compound: CCc1[nH]c2nc1-c1ccc(NC(=O)OC)cc1NC(=O)CCCC[C@@H]2c1ccc(-c2c(F)cccc2OC(F)F)c[n+]1[O-] (single isomer, unassigned) [Example 127]
- Ki [1]: 0.15 nM
- Ki [2]: 2.44 nM

Compound: Cc1[nH]c2nc1-c1ccc(N)cc1NC(=O)CCCC[C@@H]2c1ccc(-c2c(F)ccc(Cl)c2F)c[n+]1[O-] (single isomer, unassigned) [Example 128]
- Ki [1]: 0.14 nM
- Ki [2]: 0.74 nM

Compound: COC(=O)Nc1ccc2c(c1)NC(=O)CCCC[C@H](c1ccc(-c3cc(F)ccc3OC(F)F)c[n+]1[O-])c1nc-2c(C)[nH]1 (single isomer, unassigned) [Example 129]
- Ki [1]: 0.12 nM
- Ki [2]: 1.72 nM

Compound: COC(=O)Nc1ccc2c(c1)NC(=O)CCCC[C@H](c1ccc(-c3cc(F)ccc3OC(F)(F)F)c[n+]1[O-])c1nc-2c(C)[nH]1 (single isomer, unassigned) [Example 132]
- Ki [1]: 0.22 nM
- Ki [2]: 5.94 nM

Compound: CCc1[nH]c2nc1-c1ccc(NC(=O)OC)cc1NC(=O)CCCC[C@@H]2c1ccc(-c2cc(F)ccc2OC(F)(F)F)c[n+]1[O-] (single isomer, unassigned) [Example 133]
- Ki [1]: 0.46 nM
- Ki [2]: 5.08 nM

Compound: CCc1[nH]c2nc1-c1ccc(NC(=O)OC)cc1NC(=O)CCCC[C@@H]2c1ccc(-c2c(F)cccc2-n2cc(C(F)(F)F)cn2)c[n+]1[O-] (single isomer, unassigned) [Example 138]
- Ki [1]: 2.3 nM
- Ki [2]: 665 nM

Compound: COC(=O)Nc1ccc2c(c1)NC(=O)CCCC[C@H](c1ccc(-c3cc(Cl)ccc3-n3cccn3)c[n+]1[O-])c1nc-2c(C)[nH]1 (single isomer, unassigned) [Example 139]
- Ki [1]: 0.35 nM
- Ki [2]: 22.2 nM

Compound: COC(=O)Nc1ccc2c(c1)NC(=O)CCCC[C@H](c1ccc(-c3cc(Cl)ccc3-n3cc(C)cn3)c[n+]1[O-])c1nc-2c(C)[nH]1 (single isomer, unassigned) [Example 141]
- Ki [1]: 0.49 nM
- Ki [2]: 82.8 nM

Compound: Cc1[nH]c2nc1-c1cc(F)ccc1NC(=O)CCCC[C@@H]2c1ccc(-c2cc(F)ccc2-n2cnnn2)c[n+]1[O-] (single isomer, unassigned) [Example 142]
- Ki [1]: 0.47 nM
- Ki [2]: 56.7 nM

Compound: COC(=O)Nc1ccc2c(c1)NC(=O)[C@@H](C)CCC[C@H](c1ccc(-c3c(F)cccc3F)c[n+]1[O-])c1nc-2c(C)[nH]1 (single isomer, unassigned) [Example 143-a]
- Ki [1]: 0.33 nM
- Ki [2]: 1.61 nM

Compound: COC(=O)Nc1ccc2c(c1)NC(=O)[C@H](C)CCC[C@H](c1ccc(-c3c(F)cccc3F)c[n+]1[O-])c1nc-2c(C)[nH]1 (single isomer, unassigned) [Example 143-b]
- Ki [1]: 0.1 nM
- Ki [2]: 0.4 nM

Compound: COC(=O)Nc1ccc2c(c1)NC(=O)[C@@H](C)CCC[C@@H](c1ccc(-c3c(F)cccc3F)c[n+]1[O-])c1nc-2c(C)[nH]1 (single isomer, unassigned) [Example 143-c]
- Ki [1]: 1.4 nM
- Ki [2]: 5.92 nM

Compound: CCc1[nH]c2nc1-c1ccc(NC(=O)OC)cc1NC(=O)C(C)CCC[C@@H]2c1ccc(-c2c(F)cccc2F)c[n+]1[O-] (single isomer, unassigned) [Example 144]
- Ki [1]: 0.46 nM
- Ki [2]: 1.35 nM

Compound: COC(=O)Nc1ccc2c(c1)NC(=O)C(C)(C)CCC[C@H](c1ccc(-c3c(F)cccc3OC(F)F)c[n+]1[O-])c1nc-2c(C)[nH]1 (single isomer, unassigned) [Example 147]
- Ki [1]: 0.22 nM
- Ki [2]: 3.08 nM

Compound: COC(=O)Nc1ccc2c(c1)NC(=O)C1(CCC[C@H](c3ccc(-c4c(F)cccc4OC(F)F)c[n+]3[O-])c3nc-2c(C)[nH]3)CC1 (single isomer, unassigned) [Example 148]
- Ki [1]: 2.5 nM
- Ki [2]: 37.3 nM
